Measurements from patent EP1082099B1, “SURFACTANT FOR USE IN EXTERNAL PREPARATIONS FOR SKIN AND EXTERNAL PREPARATION FOR SKIN CONTAINING THE SAME” (Showa Denko K K, priority 1998, dated 1999).

Experiments:
[1] = Turbidity test of surfactin solutions with alkaline earth metal, judged visually after storage; assay type: physicochemical; set-up: key: -: Not turbid; ±: Slightly turbid; +: Turbid; details: 40°C for 7 days
Experimental: (§1) Samples were prepared by dissolving surfactin sodium salt in a concentration of 0 or 0.2% and calcium chloride dihydrate in a calcium concentration of 0, 10, or 20 ppm in each of solvents described below, and each solution was charged in a screw vial and sealed, which was then left to stand at 40°C for 7 days. After 7 days, the turbidity of each sample was judged visually.
as §1, with “dissolving 0.2%” for “dissolving”, “salt” for “salt in a concentration of 0 or 0.2%”, “magnesium” for “calcium”
(§2) Samples were prepared by dissolving 0.2% surfactin sodium salt and calcium chloride dihydrate in a calcium concentration of 0.1, 1, or 10 ppm in the solvent described below and further disodium edetate was added in an amount of 0, 0.0001, 0.001, 0.01, 0.1, 0.2, 1, or 3%, respectively. Then, each solution was charged in a screw vial and sealed, which was then left to stand at 40°C for 7 days. After 7 days, the turbidity of each sample was judged visually. […]
as §2, with “sodium citrate” for “disodium edetate”

[2] = Surface tension test (plate method); assay type: physicochemical; details: 0.1 wt% in water, 25°C
Experimental: The dried medium preparation and purified surfactin sodium salt were each dissolved in water in an amount of 0.1 wt% and their ability of decreasing surface tension was tested. […]

[3] = Turbidity test of surfactin solutions with alkaline earth metal, judged visually after storage; assay type: physicochemical; set-up: key: -: Not turbid; +: Turbid; details: 40°C for 7 days
Experimental: as §1
as §1, with “dissolving 0.2%” for “dissolving”, “salt” for “salt in a concentration of 0 or 0.2%”, “magnesium” for “calcium”
as §2
as §2, with “sodium citrate” for “disodium edetate”

[4] = tested on: three-dimensional skin model; assay: Skin irritation test: MTT cytotoxicity on three-dimensional cultured skin model; assay type: cell-based; details: test substance in PBS pH 7, 1 hour exposure, 16 hours incubation, read from graph
Experimental: Using a three-dimensional skin model (trade name: Three-dimensional cultured skin model, manufactured by Gunze), skin irritation tests were performed. […] The test substances were adjusted with PBS (Phosphate Buffer Saline, pH 7) so that they were in various concentrations. To the thus-adjusted test substances was exposed the skin model for 1 hour. Thereafter, the test substances were washed and incubated for 16 hours in a medium attached to the above-described three-dimensional skin model. After the incubation, a solution of MTT (3-(4,5-dimethylthiazol-2-yl)-2,5-diphenyltetrazolium bromide) was added and pigments were extracted with isopropanol rendered acidic with hydrochloric acid, followed by measurement of absorbance at a wavelength of 570 nm. […] This value was called B. The MTT solution was added to PBS and extraction was performed similarly. Absorbance of the extract measured at a wavelength of 570 nm was named C. From these values was calculated cytotoxicity. Calculation was made according to the following equation. Cytotoxicity (%) = (1-(A-c)/(B-C)) x 100 [formula]
Plotting the concentration of a test substance on the axis of abscissa and cytotoxicity on the axis of ordinate, a graph was obtained, from which the concentration of a test compound at 50% cytotoxicity was read.

## surfactin sodium salt
[1]; 0.2% surfactin sodium salt in Solvent 2 (7% Ethanol, 93% deionized water), magnesium 10 ppm
  turbidity: ±
[1]; 0.2% surfactin sodium salt in Solvent 2 (7% Ethanol, 93% deionized water), magnesium 20 ppm
  turbidity: ±
[1]; 0.2% surfactin sodium salt in Solvent 3 (7% Ethanol, 5% glycerin, 5% 1,3-butylene glycol, 83% deionized water), magnesium 10 ppm
  turbidity: ±
[1]; 0.2% surfactin sodium salt in Solvent 3 (7% Ethanol, 5% glycerin, 5% 1,3-butylene glycol, 83% deionized water), magnesium 20 ppm
  turbidity: ±
[1]; 0.2% surfactin sodium salt, sodium citrate 0.0001%, calcium 1 ppm, solvent 7% Ethanol, 5% glycerin, 5% 1,3-butylene glycol, 83% deionized water
  turbidity: ±
[1]; 0.2% surfactin sodium salt, sodium edetate 0.0001%, calcium 1 ppm, solvent 7% Ethanol, 5% glycerin, 5% 1,3-butylene glycol, 83% deionized water
  turbidity: ±
[2]
  Surface Tension: 27.6 mN/m
[3]; 0.2% surfactin sodium salt in Solvent 1 (deionized water), magnesium 0 ppm
  turbidity: -
[3]; 0.2% surfactin sodium salt in Solvent 1 (deionized water), magnesium 10 ppm
  turbidity: +
[3]; 0.2% surfactin sodium salt in Solvent 1 (deionized water), magnesium 20 ppm
  turbidity: +
[3]; 0.2% surfactin sodium salt in Solvent 2 (7% Ethanol, 93% deionized water), magnesium 0 ppm
  turbidity: -
[3]; 0.2% surfactin sodium salt in Solvent 3 (7% Ethanol, 5% glycerin, 5% 1,3-butylene glycol, 83% deionized water), magnesium 0 ppm
  turbidity: -
[3]; 0.2% surfactin sodium salt, sodium citrate 0%, calcium 0.1 ppm, solvent 7% Ethanol, 5% glycerin, 5% 1,3-butylene glycol, 83% deionized water
  turbidity: -
[3]; 0.2% surfactin sodium salt, sodium citrate 0%, calcium 1 ppm, solvent 7% Ethanol, 5% glycerin, 5% 1,3-butylene glycol, 83% deionized water
  turbidity: +
[3]; 0.2% surfactin sodium salt, sodium citrate 0%, calcium 10 ppm, solvent 7% Ethanol, 5% glycerin, 5% 1,3-butylene glycol, 83% deionized water
  turbidity: +
[3]; 0.2% surfactin sodium salt, sodium citrate 0.0001%, calcium 0.1 ppm, solvent 7% Ethanol, 5% glycerin, 5% 1,3-butylene glycol, 83% deionized water
  turbidity: -
[3]; 0.2% surfactin sodium salt, sodium citrate 0.0001%, calcium 10 ppm, solvent 7% Ethanol, 5% glycerin, 5% 1,3-butylene glycol, 83% deionized water
  turbidity: +
[3]; 0.2% surfactin sodium salt, sodium citrate 0.001%, calcium 0.1 ppm, solvent 7% Ethanol, 5% glycerin, 5% 1,3-butylene glycol, 83% deionized water
  turbidity: -
[3]; 0.2% surfactin sodium salt, sodium citrate 0.001%, calcium 1 ppm, solvent 7% Ethanol, 5% glycerin, 5% 1,3-butylene glycol, 83% deionized water
  turbidity: -
[3]; 0.2% surfactin sodium salt, sodium citrate 0.001%, calcium 10 ppm, solvent 7% Ethanol, 5% glycerin, 5% 1,3-butylene glycol, 83% deionized water
  turbidity: +
[3]; 0.2% surfactin sodium salt, sodium citrate 0.01%, calcium 0.1 ppm, solvent 7% Ethanol, 5% glycerin, 5% 1,3-butylene glycol, 83% deionized water
  turbidity: -
[3]; 0.2% surfactin sodium salt, sodium citrate 0.01%, calcium 1 ppm, solvent 7% Ethanol, 5% glycerin, 5% 1,3-butylene glycol, 83% deionized water
  turbidity: -
[3]; 0.2% surfactin sodium salt, sodium citrate 0.01%, calcium 10 ppm, solvent 7% Ethanol, 5% glycerin, 5% 1,3-butylene glycol, 83% deionized water
  turbidity: -
[3]; 0.2% surfactin sodium salt, sodium citrate 0.1%, calcium 0.1 ppm, solvent 7% Ethanol, 5% glycerin, 5% 1,3-butylene glycol, 83% deionized water
  turbidity: -
[3]; 0.2% surfactin sodium salt, sodium citrate 0.1%, calcium 1 ppm, solvent 7% Ethanol, 5% glycerin, 5% 1,3-butylene glycol, 83% deionized water
  turbidity: -
[3]; 0.2% surfactin sodium salt, sodium citrate 0.1%, calcium 10 ppm, solvent 7% Ethanol, 5% glycerin, 5% 1,3-butylene glycol, 83% deionized water
  turbidity: -
[3]; 0.2% surfactin sodium salt, sodium citrate 0.2%, calcium 0.1 ppm, solvent 7% Ethanol, 5% glycerin, 5% 1,3-butylene glycol, 83% deionized water
  turbidity: -
[3]; 0.2% surfactin sodium salt, sodium citrate 0.2%, calcium 1 ppm, solvent 7% Ethanol, 5% glycerin, 5% 1,3-butylene glycol, 83% deionized water
  turbidity: -
[3]; 0.2% surfactin sodium salt, sodium citrate 0.2%, calcium 10 ppm, solvent 7% Ethanol, 5% glycerin, 5% 1,3-butylene glycol, 83% deionized water
  turbidity: -
[3]; 0.2% surfactin sodium salt, sodium citrate 1%, calcium 0.1 ppm, solvent 7% Ethanol, 5% glycerin, 5% 1,3-butylene glycol, 83% deionized water
  turbidity: -
[3]; 0.2% surfactin sodium salt, sodium citrate 1%, calcium 1 ppm, solvent 7% Ethanol, 5% glycerin, 5% 1,3-butylene glycol, 83% deionized water
  turbidity: -
[3]; 0.2% surfactin sodium salt, sodium citrate 1%, calcium 10 ppm, solvent 7% Ethanol, 5% glycerin, 5% 1,3-butylene glycol, 83% deionized water
  turbidity: -
[3]; 0.2% surfactin sodium salt, sodium citrate 3%, calcium 0.1 ppm, solvent 7% Ethanol, 5% glycerin, 5% 1,3-butylene glycol, 83% deionized water
  turbidity: -
[3]; 0.2% surfactin sodium salt, sodium citrate 3%, calcium 1 ppm, solvent 7% Ethanol, 5% glycerin, 5% 1,3-butylene glycol, 83% deionized water
  turbidity: -
[3]; 0.2% surfactin sodium salt, sodium citrate 3%, calcium 10 ppm, solvent 7% Ethanol, 5% glycerin, 5% 1,3-butylene glycol, 83% deionized water
  turbidity: -
[3]; 0.2% surfactin sodium salt, sodium edetate 0%, calcium 0.1 ppm, solvent 7% Ethanol, 5% glycerin, 5% 1,3-butylene glycol, 83% deionized water
  turbidity: -
[3]; 0.2% surfactin sodium salt, sodium edetate 0%, calcium 1 ppm, solvent 7% Ethanol, 5% glycerin, 5% 1,3-butylene glycol, 83% deionized water
  turbidity: +
[3]; 0.2% surfactin sodium salt, sodium edetate 0%, calcium 10 ppm, solvent 7% Ethanol, 5% glycerin, 5% 1,3-butylene glycol, 83% deionized water
  turbidity: +
[3]; 0.2% surfactin sodium salt, sodium edetate 0.0001%, calcium 0.1 ppm, solvent 7% Ethanol, 5% glycerin, 5% 1,3-butylene glycol, 83% deionized water
  turbidity: -
[3]; 0.2% surfactin sodium salt, sodium edetate 0.0001%, calcium 10 ppm, solvent 7% Ethanol, 5% glycerin, 5% 1,3-butylene glycol, 83% deionized water
  turbidity: +
[3]; 0.2% surfactin sodium salt, sodium edetate 0.001%, calcium 0.1 ppm, solvent 7% Ethanol, 5% glycerin, 5% 1,3-butylene glycol, 83% deionized water
  turbidity: -
[3]; 0.2% surfactin sodium salt, sodium edetate 0.001%, calcium 1 ppm, solvent 7% Ethanol, 5% glycerin, 5% 1,3-butylene glycol, 83% deionized water
  turbidity: -
[3]; 0.2% surfactin sodium salt, sodium edetate 0.001%, calcium 10 ppm, solvent 7% Ethanol, 5% glycerin, 5% 1,3-butylene glycol, 83% deionized water
  turbidity: +
[3]; 0.2% surfactin sodium salt, sodium edetate 0.01%, calcium 0.1 ppm, solvent 7% Ethanol, 5% glycerin, 5% 1,3-butylene glycol, 83% deionized water
  turbidity: -
[3]; 0.2% surfactin sodium salt, sodium edetate 0.01%, calcium 1 ppm, solvent 7% Ethanol, 5% glycerin, 5% 1,3-butylene glycol, 83% deionized water
  turbidity: -
[3]; 0.2% surfactin sodium salt, sodium edetate 0.01%, calcium 10 ppm, solvent 7% Ethanol, 5% glycerin, 5% 1,3-butylene glycol, 83% deionized water
  turbidity: -
[3]; 0.2% surfactin sodium salt, sodium edetate 0.1%, calcium 0.1 ppm, solvent 7% Ethanol, 5% glycerin, 5% 1,3-butylene glycol, 83% deionized water
  turbidity: -
[3]; 0.2% surfactin sodium salt, sodium edetate 0.1%, calcium 1 ppm, solvent 7% Ethanol, 5% glycerin, 5% 1,3-butylene glycol, 83% deionized water
  turbidity: -
[3]; 0.2% surfactin sodium salt, sodium edetate 0.1%, calcium 10 ppm, solvent 7% Ethanol, 5% glycerin, 5% 1,3-butylene glycol, 83% deionized water
  turbidity: -
[3]; 0.2% surfactin sodium salt, sodium edetate 0.2%, calcium 0.1 ppm, solvent 7% Ethanol, 5% glycerin, 5% 1,3-butylene glycol, 83% deionized water
  turbidity: -
[3]; 0.2% surfactin sodium salt, sodium edetate 0.2%, calcium 1 ppm, solvent 7% Ethanol, 5% glycerin, 5% 1,3-butylene glycol, 83% deionized water
  turbidity: -
[3]; 0.2% surfactin sodium salt, sodium edetate 0.2%, calcium 10 ppm, solvent 7% Ethanol, 5% glycerin, 5% 1,3-butylene glycol, 83% deionized water
  turbidity: -
[3]; 0.2% surfactin sodium salt, sodium edetate 1%, calcium 0.1 ppm, solvent 7% Ethanol, 5% glycerin, 5% 1,3-butylene glycol, 83% deionized water
  turbidity: -
[3]; 0.2% surfactin sodium salt, sodium edetate 1%, calcium 1 ppm, solvent 7% Ethanol, 5% glycerin, 5% 1,3-butylene glycol, 83% deionized water
  turbidity: -
[3]; 0.2% surfactin sodium salt, sodium edetate 1%, calcium 10 ppm, solvent 7% Ethanol, 5% glycerin, 5% 1,3-butylene glycol, 83% deionized water
  turbidity: -
[3]; 0.2% surfactin sodium salt, sodium edetate 3%, calcium 0.1 ppm, solvent 7% Ethanol, 5% glycerin, 5% 1,3-butylene glycol, 83% deionized water
  turbidity: -
[3]; 0.2% surfactin sodium salt, sodium edetate 3%, calcium 1 ppm, solvent 7% Ethanol, 5% glycerin, 5% 1,3-butylene glycol, 83% deionized water
  turbidity: -
[3]; 0.2% surfactin sodium salt, sodium edetate 3%, calcium 10 ppm, solvent 7% Ethanol, 5% glycerin, 5% 1,3-butylene glycol, 83% deionized water
  turbidity: -
[3]; Surfactin 0.2% in Solvent 1 (deionized water), calcium 0 ppm
  turbidity: -
[3]; Surfactin 0.2% in Solvent 1 (deionized water), calcium 10 ppm
  turbidity: +
[3]; Surfactin 0.2% in Solvent 1 (deionized water), calcium 20 ppm
  turbidity: +
[3]; Surfactin 0.2% in Solvent 2 (7% Ethanol, 93% deionized water), calcium 0 ppm
  turbidity: -
[3]; Surfactin 0.2% in Solvent 2 (7% Ethanol, 93% deionized water), calcium 10 ppm
  turbidity: +
[3]; Surfactin 0.2% in Solvent 2 (7% Ethanol, 93% deionized water), calcium 20 ppm
  turbidity: +
[3]; Surfactin 0.2% in Solvent 3 (7% Ethanol, 5% glycerin, 5% 1,3-butylene glycol, 83% deionized water), calcium 0 ppm
  turbidity: -
[3]; Surfactin 0.2% in Solvent 3 (7% Ethanol, 5% glycerin, 5% 1,3-butylene glycol, 83% deionized water), calcium 10 ppm
  turbidity: +
[3]; Surfactin 0.2% in Solvent 3 (7% Ethanol, 5% glycerin, 5% 1,3-butylene glycol, 83% deionized water), calcium 20 ppm
  turbidity: +
[4]
  Concentration of surfactant at 50% cytotoxicity: 24.4%
